Assays:
Type in all cases: cell-based, mouse
[1] = system: ATDC5 micromasses; test: Epigenetic library screen on miniaturised ATDC5 micromasses (alcian blue / alizarin red)
Description: An epigenetic library consisting of 226 known epigenetic modulator compounds was used to screen against ATDC5 high density micromass cultures to identify any compounds that have an inhibitory effect on matrix mineralisation (catabolic chondrocyte) whilst maintaining and/or promoting healthy extracellular matrix deposition (anabolic chondrocyte). The opposite may be used for identifying molecules that accelerate endochondral ossification for fracture repair i.e. promotes matrix mineralisation.
In the developed screening method, 5.4×10^4 cells in a total volume of 2 μl standard growth media (DMEM-F12, 5% FBS, 1% Ab/Am 10 μg/ml human transferrin, 3×10^−8 M sodium selenite) were seeded onto single wells of a 96-well plate and incubated at 37° C., 5% CO2 in a humidified incubator for 2 hours to allow for cell adherence. 100 μl of differentiation media DMEM-F12, 5% FBS, 1% Ab/Am, 5 μg/ml human transferrin, 1×ITS) containing a single compound was added to each well.
Plates were seeded in duplicate to allow for observation each compound has on glycosaminoglycan and mineral deposition at the end of the culture. This enabled for one 96-well plate to screen up to 96 compounds individually. Multiple plates were set up at the same time allowing the entire library to be screened in parallel. […]
On day 14, culture plates were fixed with 95% ice-cold methanol for 25 minutes and each compound treated well stained with either 1% alcian blue pH 2.5, a stain for glycosaminoglycans indicative of healthy ECM or 1% alizarin red pH 4.2, a stain for mineralisation (calcium) indicative of chondrocyte hypertrophy observed in cartilage disease. Alcian blue stained wells were leached with 8M guanidine hydrochloride and alizarin red leached with 10% cetylpyridinium chloride to quantify staining by absorbance 650 nm and 570 nm, respectively. Leached stain absorbances were plotted on GraphPad Prism for each compound for both alizarin red and alcian blue. To identify hits, the alcian blue:alizarin red ratio was plotted and readings higher than the control group ratios were classified as hits. […]

[2] = system: ATDC5 micromasses; test: RNA sequencing of BI1347 treated ATDC5 micromasses; details: 1 μM vs DMSO
Description: 2.7×10^5 ATDC5 cells were seeded in a 10 μl micromasses and differentiated in the presence of 1 μM BI1347 or DMSO control for 7 days before RNA extraction as previously described. Two wells were pooled per extraction and treatment conditions were set up in triplicate.
Total RNA quantification and integrity was determined via Bioanalyzer 2100 (Agilent) and RNA samples with an integrity number above 9.0 were processed for RNA sequencing.
The RNA library was formed by polyA capture using poly-T oligo attached magnetic beads and subsequently reverse transcribed for cDNA synthesis and library construction. The library was then sequenced using the Illumina PE150 technology and clean reads with high quality data were taken forward for downstream analysis. Paired-end clean reads were aligned to the Mus Musculus reference genome and reads numbers mapped to each gene. Fragments Per Kilobase of transcript sequence per Millions base pairs sequenced (FPKM) of each gene was calculated based on the length of the gene and reads count mapped to the gene.
Differential expression analysis of BI1347 treatment versus DMSO control was performed. Genes with an adjusted P-value≤0.05 and a fold change≥2 were considered differentially expressed.
Cluster analysis was carried out on all the differentially expressed genes in each group and biological replicate using hierarchical clustering to cluster the FPKM values of genes.
Genes of interest relating to chondrocyte hypertrophy and cartilage homeostasis were identified.

[3] = system: hypertrophic ATDC5 micromasses; test: Metabolic analysis (MitoStress Test, Seahorse XF) of hypertrophic ATDC5 micromasses; details: 1 μM
Description: This higher dependency on glycolysis for energy production is linked to enhanced catabolic processes, therefore reducing glycolysis has been proposed as a therapeutic approach for OA (Tan et al. (2022) “A new strategy for osteoarthritis therapy: Inhibition of glycolysis”. Front Pharmacol. 2022 Nov. 10; 13:1057229. doi: 10.3389/fphar.2022.1057229.). To assess energy metabolism of hypertrophic ATDC5 cells in the presence of CDK8i, 2 μl micromasses were seeded onto a Seahorse XF HS Miniplate (Agilent). Micromasses were differentiated in the presence of MSC2530818 as previously described for 1 week before switching to mineralisation media containing MSC2530818 for 24 hours. The MitoStress Test (Agilent) was carried out on hypertrophic micromasses using 1.5 μM oligomycin, 0.5 μM […] and 0.25 μM FCCP which measured real-time extracellular acidification and oxygen consumption rate. Analysis via the Agilent Seahorse Analytics platform basal oxygen consumption rate and glycolysis measurements.

[4] = compound present 14 days, compared to negative control BI1374 and DMSO

SMILES: CN(C)C(=O)Cn1cc(-c2ccc(-c3cncc4ccccc34)cc2)cn1 [BI1347]
- glycosaminoglycan (GAG) deposition (alcian blue) [1, 4]: promotes glycosaminoglycan (GAG) deposition
- mineralisation (alizarin red) [1, 4]: reduces mineralisation
- alcian blue:alizarin red absorbance ratio (hit identification) ([1]; vs window of DMSO control ratios): modulator of endochondral ossification
- enrichment of downregulated biological process: innate immune response ([2]; day 7, Gene Ontology): 3 fold
- enrichment of downregulated biological process: response to cytokines ([2]; day 7, Gene Ontology): 3 fold
- enrichment of downregulated biological process: response to interferon-beta ([2]; day 7, Gene Ontology): 15 fold
- enrichment of upregulated biological process: Chondrocyte differentiation ([2]; day 7, Gene Ontology): 6 fold
- enrichment of upregulated biological process: Collagen fibril organisation ([2]; day 7, Gene Ontology): 10 fold
- enrichment of upregulated biological process: cartilage development ([2]; day 7, Gene Ontology): 5.5 fold
- enrichment of upregulated biological process: extracellular matrix organisation ([2]; day 7, Gene Ontology): 5 fold
- Log2 Fold Change ACAN ([2]; RNA-Seq, day 7): 2.40
- Log2 Fold Change ADAMT S4 ([2]; RNA-Seq, day 7): −1.58
- Log2 Fold Change AXIN2 ([2]; RNA-Seq, day 7): −2.38
- Log2 Fold Change BARX2 ([2]; RNA-Seq, day 7): 6.42
- Log2 Fold Change BGLAP ([2]; RNA-Seq, day 7): −1.42
- Log2 Fold Change COL2A1 ([2]; RNA-Seq, day 7): 2.69
- Log2 Fold Change COL9A3 ([2]; RNA-Seq, day 7): 4.44
- Log2 Fold Change COL 13A1 ([2]; RNA-Seq, day 7): −4.99
- Log2 Fold Change CPA5 ([2]; RNA-Seq, day 7): 7.57
- Log2 Fold Change CPM ([2]; RNA-Seq, day 7): 6.76
- Log2 Fold Change F5 ([2]; RNA-Seq, day 7): 6.76
- Log2 Fold Change FGFR3 ([2]; RNA-Seq, day 7): 1.75
- Log2 Fold Change GALNT17 ([2]; RNA-Seq, day 7): 6.56
- Log2 Fold Change GDF5 ([2]; RNA-Seq, day 7): 2.39
- Log2 Fold Change GREM1 ([2]; RNA-Seq, day 7): 1.68
- Log2 Fold Change IBSP ([2]; RNA-Seq, day 7): −6.06
- Log2 Fold Change IHH ([2]; RNA-Seq, day 7): −2.65
- Log2 Fold Change IL-6 ([2]; RNA-Seq, day 7): −3.23
- Log2 Fold Change ISG15 ([2]; RNA-Seq, day 7): −6.47
- Log2 Fold Change KLK11 ([2]; RNA-Seq, day 7): 6.45
- Log2 Fold Change MATN1 ([2]; RNA-Seq, day 7): 5.88
- Log2 Fold Change MATN3 ([2]; RNA-Seq, day 7): 5.87
- Log2 Fold Change MEF2C ([2]; RNA-Seq, day 7): −1.58
- Log2 Fold Change NOG ([2]; RNA-Seq, day 7): 2.08
- Log2 Fold Change NOSTRIN ([2]; RNA-Seq, day 7): −2.00
- Log2 Fold Change P2RY10 ([2]; RNA-Seq, day 7): 6.40
- Log2 Fold Change PHLDA2 ([2]; RNA-Seq, day 7): 6.62
- Log2 Fold Change SMOC3 ([2]; RNA-Seq, day 7): 2.71
- Log2 Fold Change SOX5 ([2]; RNA-Seq, day 7): 1.16
- Log2 Fold Change SOX6 ([2]; RNA-Seq, day 7): 1.11
- Log2 Fold Change SOX8 ([2]; RNA-Seq, day 7): 2.65
- Log2 Fold Change TMEM119 ([2]; RNA-Seq, day 7): −4.98
- log2FoldChange GRHL3 ([2]; RNA-Seq, day 7): −7.66
- log2FoldChange MX2 ([2]; RNA-Seq, day 7): −7.03
- log2FoldChange OAS1A ([2]; RNA-Seq, day 7): −7.64
- log2FoldChange OAS2 ([2]; RNA-Seq, day 7): −11.27
- log2FoldChange OAS3 ([2]; RNA-Seq, day 7): −7.22
- log2FoldChange OASL1 ([2]; RNA-Seq, day 7): −10.46
- log2FoldChange RSAD2 ([2]; RNA-Seq, day 7): −7.12
- log2FoldChange SLC36A2 ([2]; RNA-Seq, day 7): −8.53
- log2FoldChange TRIM30D ([2]; RNA-Seq, day 7): −7.12

SMILES: Cc1n[nH]c2ncc(C(=O)N3CCC[C@H]3c3ccc(Cl)cc3)cc12 [MSC2530818]
- decrease in total basal glycolysis (inferred from OCR/ECAR measurements) vs DMSO [3]: 37%
- extracellular acidification rate (ECAR) vs DMSO ([3]; across the time course measured): lower than DMSO control
- total basal oxygen consumption rate (OCR) vs DMSO ([3]; p=0.5085): no significant difference
